According to patent publication US5405843A, “Quinoline derivatives” (Mitsui Toatsu Chemicals, Incorporated, priority 1988, dated 1995):

Test system: Adriamycin resistant strain 2780 AD cells of human ovarian cancer A2780 cells
Assay: Potentiating effect on incorporation of 3H-vincristine into adriamycin-resistant cancer cells
Assay type: cell-based
Conditions: 20 nM 3H-vincristine; for activity at 1 µg/mL / activity at 10 µg/mL: Homo sapiens, 2780AD, 2 h, control = 100, read-out: 3H-vincristine accumulation; for activity at 10 µg/mL: compound 10 μg/ml
Protocol: Potentiating Effect of the Compounds on Incorporation of Anticancer Drugs into Drug-resistant Cancer Cells
Adriamycin resistant strain 2780 AD cells of human ovarian cancer A2780 cells (A. M. Rogan et al., Science 224, 994-996, 1984) were suspended at a concentration of 1×10^6 /ml in RPMI-1640 medium supplemented with 5% fetal calf serum, and 1 ml of the cancer cell suspension was dispensed into each well of a multi-well culture plate (24 wells, […] in diameter) and then incubated at 37° C. in an atmosphere of 5% CO2. After 24 hours incubation, the medium in each well was replaced by 0.5 ml of RPMI-1640 medium supplemented containing 20 nM ^3 H-vincristine (1×10^4 dpm/pmol), 5% fetal calf serum and 10 mM Hepes buffer. Five microliters of a solution of the compound to be tested, which had been dissolved in DMSO and diluted with […] (at a concentration of 1.0 microgram/ml or 10.0 micrograms/ml), was added to each well and the incubation was continued at 37° C. in 5% CO2 for 2 hours. The resultant cells were washed in cold saline-phosphate buffer. In each well was added 0.5 ml of 0.2N NaOH, and the resulting cell suspension in each well was independently transferred into a vial and then heated in a water bath at 56° C. for 30-60 minutes to dissolve the cells. After adding 4 ml of acid aquazole 2, the amount of ^3 H-vincristine incorporated into the cells was determined by a fluid scintillation counter.

| Compound | activity at 1 µg/mL (compound 1 μg/ml) [%] | activity at 10 µg/mL [%] | 3H-vincristine accumulation (compound 1 μg/ml, 2 hours, control = 100, 120 min) [%] |
| --- | --- | --- | --- |
| COc1ccc(OCC(O)CN2CCN(C(c3ccccc3)c3ccccc3)CC2)c2cccnc12 (stereo not shown) [Example 25, 5-[3-(4-Diphenylmethylpiperazine-1-yl)-2-hydroxypropoxy]-8-methoxyquinoline] | 858 | – | – |
| OC(COc1cccc2nc(Cl)ccc12)CN1CCC(C(O)(c2ccccc2)c2ccccc2)CC1 (stereo not shown) [Example 19, 5-[3-(4-(Diphenyl-hydroxymethyl)piperidine-1-yl)-2-hydroxypropoxy]-2-chloroquinoline] | 374 | 524 | – |
| CN(CC(O)CN1CCN(C(c2ccccc2)c2ccccc2)CC1)c1cccc2ncccc12 (stereo not shown) [Example 30, N-[3-(4-Diphenylmethylpiperazine-1-yl)-2-hydroxypropyl]-N-methyl-5-quinolineamine] | 597 | – | – |
| OC(COc1cccc2cnccc12)CN1CCN(C(c2ccccc2)c2ccccc2)CC1 (stereo not shown) [Example 43, 5-[3-(4-Diphenylmethylpiperazine-1-yl)-2-hydroxypropoxy]isoquinoline] | 531 | – | – |
| OC(COc1cccc2nccnc12)CN1CCN(C(c2ccccc2)c2ccccc2)CC1 (stereo not shown) [Example 50, 5-[3-(4-Diphenylmethylpiperazine-1-yl)-2-hydroxypropoxy]quinoxaline] | 559 | 668 | – |
| Cc1cc(C)c2c(OCC(O)CN3CCC(=C(c4ccccc4)c4ccccc4)CC3)cccc2n1 (stereo not shown) [Example 67, 2,4-Dimethyl-5-[3-(4-diphenylmethylenepiperizine-1-yl)-2-hydroxypropoxy]quinoline] | 730 | – | – |
| OC(COc1cccc2cnccc12)CN1CCCN(C(c2ccccc2)c2ccccc2)CC1 (stereo not shown) [Example 45, 5-[3-(4-Diphenylmethylhomopiperazine-1-yl)-2-hydroxypropoxy]isoquinoline] | 307 | 982 | – |
| OC(COc1ccnc2ccccc12)CN1CCN(C(c2ccccc2)c2ccccc2)CC1 (stereo not shown) [Example 46, 4-[3-(4-Diphenylmethylpiperazine-1-yl)-2-hydroxypropoxy]quinoline] | 142 | 987 | – |
| Cc1ccc2ncccc2c1OCC(O)CN1CCN(C(c2ccccc2)c2ccccc2)CC1 (stereo not shown) [Example 23, 5-[3-(4-Diphenylmethylpiperazine-1-yl)-2-hydroxypropoxy]-6-methylguinoline] | 723 | – | – |
| CC(=O)OC(CN1CCN(C(c2ccccc2)c2ccccc2)CC1)CN(C(C)=O)c1cccc2ncccc12 (stereo not shown) [Example 39, 5-[N-Acetyl-(2-acetoxy-3-(4-diphenylmethylpiperazine-1-yl)propylamino)]quinoline] | 236 | 908 | – |
| Cc1ccc(OCC(O)CN2CCN(C(c3ccccc3)c3ccccc3)CC2)c2cccnc12 (stereo not shown) [Example 24, 5-[3-(4-Diphenylmethylpiperazine-1-yl)-2-hydroxypropoxy]-8-methylquinoline] | 146 | 931 | – |
| OC(COc1cccc2cccnc12)CN1CCN(C(c2ccccc2)c2ccccc2)CC1 (stereo not shown) [Example 49, 8-[3-(4-Diphenylmethylpiperazine-1-yl)-2-hydroxypropoxy]-quinoline] | 213 | 612 | – |
| OC(COc1cccc2nc(C(F)(F)F)cc(C(F)(F)F)c12)CN1CCN(C2c3ccccc3CCc3ccccc32)CC1 (stereo not shown) [Example 76, 5-[3-(4-(Dibenzosuberane-5-yl)piperazine-1-yl)-2-hydroxypropoxy]-2,4-bis(trifluoromethyl)quinoline] | 130 | 304 | – |
| CN(CCC=C1c2ccccc2CCc2ccccc21)CC(O)COc1cccc2ncccc12 (stereo not shown) [Example 68, 5-(3[N-{3-dibenzosuberane-5-ylidene)propy}-N-methylamino-2-hydroxypropoxy)quinoline] | 671 | – | – |
| Cc1cc(C(F)(F)F)nc2cccc(OCC(O)CN3CCN(C(c4ccccc4)c4ccccc4)CC3)c12 (stereo not shown) [Example 56, 2-Trifluoromethyl-4-methyl-5-[3-(4-diphenylmethylpiperazine-1-yl)-2-hydroxypropoxy]quinoline] | 321 | 735 | – |
| OC(CNCC(c1ccccc1)c1ccccc1)COc1cccc2ncccc12 (stereo not shown) [Example 70, 5-[3-(2,2-Diphenylethylamino)-2-hydroxypropoxy]quinoline] | 252 | 960 | – |
| CS(=O)(=O)c1ccc2c(OCC(O)CN3CCN(C4c5ccccc5CCc5ccccc54)CC3)cccc2n1 (stereo not shown) [Example 71, 2-Methylsufonyl-5-[3-(4-(dibenzosuberane-5-yl)piperazine-1-yl)-2-hydroxypropoxy]quinoline] | 501 | 921 | – |

| Compound | activity at 1 µg/mL (compound 1 μg/ml) [%] | activity at 10 µg/mL [%] | 3H-vincristine accumulation (compound 1 μg/ml, 2 hours, control = 100, 120 min) [%] |
| --- | --- | --- | --- |
| OC(COc1cccc2ncccc12)CN1CCN(C2c3ccccc3Oc3ccccc32)CC1 (stereo not shown) [Example 72, 5-[3-(4-(Xanthene-9-yl)piperazine-1-yl)-2-hydroxypropoxy]quinoline] | 112 | 144 | – |
| OC(CSc1cccc2ncccc12)CN1CCN(C2c3ccccc3CCc3ccccc32)CC1 (stereo not shown) [Example 75, 5-[3-(4-(Dibenzosuberane-5-yl)piperazine-1-yl)-2-hydroxy-propylthio]quinoline] | 587 | – | – |
| CC(=O)N(CC(O)CN1CCN(C(c2ccccc2)c2ccccc2)CC1)c1cccc2ncccc12 (stereo not shown) [Example 40, 5-[N-Acetyl-(3-(4-diphenylmethylpiperazine-1-yl)-2-hydroxypropylamino)]quinoline] | 259 | – | – |
| CN(C(=O)CCN1CCN(C(c2ccccc2)c2ccccc2)CC1)c1cccc2ncccc12 [Example 37, 5-[N-Methyl-(3-(4-diphenylmethylpiperazine-1-yl)propionamido)]quinoline] | 549 | 1000 | – |
| OC(COc1cccc2ncccc12)CN1CCC(C2(O)c3ccccc3C=Cc3ccccc32)CC1 (stereo not shown) [Example 79, 5-[2-Hydroxy-3-(4-(5-hydroxydibenzosuberene-5-yl)piperidine-1-yl)propoxy]quinoline] | 841 | 963 | – |
| OC(COc1cccc2ncncc12)CN1CCN(C(c2ccccc2)c2ccccc2)CC1 (stereo not shown) [Example 51, 5-[3-(4-Diphenylmethylpiperazine-1-yl)-2-hydroxypropoxy]quinazoline] | 534 | 798 | – |
| CSc1ccc2c(OCC(O)CN3CCN(C4c5ccccc5CCc5ccccc54)CC3)cccc2n1 (stereo not shown) [Example 64, 2-Methylthio-5-[3-(4-(dibenzosuberane-5-yl)piperazine-1-yl)-2-hydroxypropoxy]quinoline] | 425 | 900 | – |
| OC(COc1ccc(Cl)c2ncccc12)CN1CCN(C(c2ccccc2)c2ccccc2)CC1 (stereo not shown) [Example 29, 5-[3-(4-Diphenylmethylpiperazine-1-yl)-2-hydroxypropoxy]-8-chloroquinoline] | 246 | – | – |
| OC(CSc1cccc2ncccc12)CN1CCN(C(c2ccccc2)c2ccccc2)CC1 (stereo not shown) [Example 31, 5-[3-(4-Diphenylmethylpiperazine-1-yl)-2-hydroxypropylthio]quinoline] | – | 799 | 428 |
| OC(CNCCC(c1ccccc1)c1ccccc1)COc1cccc2ncccc12 (stereo not shown) [Example 69, 5-[3-(3,3-Diphenylpropylamino)-2-hydroxypropoxy]quinoline] | 738 | 941 | – |
| O=[N+]([O-])c1ccc(OCC(O)CN2CCN(C(c3ccccc3)c3ccccc3)CC2)c2cccnc12 (stereo not shown) [Example 26, 5-[3-(4-Diphenylmethylpiperazine-1-yl)-2-hydroxypropoxy]-8-nitroquinoline] | 177 | – | – |
| OC(COc1nccc2ccccc12)CN1CCN(C(c2ccccc2)c2ccccc2)CC1 (stereo not shown) [Example 48, 1-[3-(4-Diphenylmethylpiperazine-1-yl)-2-hydroxypropoxy]isoquinoline] | 215 | 798 | – |
| OC(COc1cccc2ncccc12)CN1CCN(C(c2ccccc2)c2ccncc2)CC1 (stereo not shown) [Example 52, 5-(3-[4-((4-Pyridyl) -phenylmethyl)piperazine-1-yl]-2-hydroxypropoxy)quinoline] | 379 | 910 | – |
| CN(CCN(C)C1c2ccccc2CCc2ccccc21)CC(O)COc1cccc2ncccc12 (stereo not shown) [Example 63] | 773 | – | – |
| c1ccc(C(c2ccccc2)N2CCN(CCCCOc3cccc4ncccc34)CC2)cc1 [Example 33, 5-[4-(4-Diphenylmethylpiperazine-1-yl)butoxy]quinoline] | 447 | – | – |
| Cc1cc(C)c2c(OCC(O)CN(C)CCN(C)C3c4ccccc4CCc4ccccc43)cccc2n1 (stereo not shown) [Example 66, 2,4-Dimethyl-5-[3-(N,N'-dimethyl-N'-(dibenzosuberane-5-yl)ethylenediamino)-2-hydroxypropoxy]quinoline] | 488 | – | – |
| CN(C(=O)CCN1CCN(C2c3ccccc3CCc3ccccc32)CC1)c1cccc2ncccc12 [Example 38, 5-[N-methyl-(3-(4-dibenzosuberanylpiperazine-1-yl)-propionamide)]quinoline] | 378 | 819 | – |
